Drawing on US20110152243A1, “NOVEL THIENOPYRROLE COMPOUNDS” (ABBOTT LABORATORIES, priority 2009, published 2011), this text covers IC50 for 25 molecules.

pIC50: −log10 of the molar value. A value given as a limit tells only on which side of the number the result lay.

The term pIC50 denotes −log10 of the IC50, conventionally taken in molar units. A higher pIC50 goes with a low IC50.

The test deals with PKCθ (Homo sapiens, UniProt Q04759). The experiment in a line: PKCθ enzyme data at 1 mM ATP. Format: biochemical.
Sequence of PKCθ (Q04759 whole entry): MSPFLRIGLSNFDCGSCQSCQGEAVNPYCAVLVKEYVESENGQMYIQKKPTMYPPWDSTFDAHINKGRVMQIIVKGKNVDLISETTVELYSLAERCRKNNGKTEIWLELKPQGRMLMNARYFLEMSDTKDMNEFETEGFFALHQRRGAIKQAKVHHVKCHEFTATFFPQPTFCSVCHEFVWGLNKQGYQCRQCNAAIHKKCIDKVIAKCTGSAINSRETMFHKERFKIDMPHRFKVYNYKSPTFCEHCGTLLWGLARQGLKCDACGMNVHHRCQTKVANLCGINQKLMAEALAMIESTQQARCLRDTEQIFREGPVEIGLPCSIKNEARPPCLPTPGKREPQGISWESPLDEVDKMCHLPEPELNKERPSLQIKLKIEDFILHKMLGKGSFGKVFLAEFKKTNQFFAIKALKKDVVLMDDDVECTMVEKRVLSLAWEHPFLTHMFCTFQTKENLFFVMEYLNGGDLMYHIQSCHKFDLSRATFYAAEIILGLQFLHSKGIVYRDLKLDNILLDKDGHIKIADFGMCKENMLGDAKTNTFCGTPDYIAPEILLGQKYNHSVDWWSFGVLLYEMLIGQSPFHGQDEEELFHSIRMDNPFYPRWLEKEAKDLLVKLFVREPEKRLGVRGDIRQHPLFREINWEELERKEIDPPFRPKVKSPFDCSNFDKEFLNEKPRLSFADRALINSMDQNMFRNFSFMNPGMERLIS
Molecule `CN1CCN(c2nc(C3=C(c4c[nH]c5sccc45)C(=O)NC3=O)c3ccccc3n2)CC1(C)C` [E.1.24] had a pIC50 of more than 7.00. The figure for `CC(C)(CO)N1CCN(c2nc(C3=C(c4c[nH]c5sccc45)C(=O)NC3=O)c3ccccc3n2)CC1` [E.1.56] is more than 7.00; for `Cc1noc(C2CCN(c3nc(C4=C(c5c[nH]c6sccc56)C(=O)NC4=O)c4ccccc4n3)CC2)n1` [E.1.10] it is 6.00 to 6.30; for `CN1CCN(c2cc3ccc(F)cc3c(C3=C(c4c[nH]c5sccc45)C(=O)NC3=O)n2)CC1` [F.4.34] it is more than 7.00. The figure for `CNC1(C)CCN(c2nc(C3=C(c4c[nH]c5sccc45)C(=O)NC3=O)c3ccccc3n2)CC1` [E.1.42] is 6.30 to 7.00; for `CC(C)(C)N1CCN(c2nc(C3=C(c4c[nH]c5sccc45)C(=O)NC3=O)c3ccccc3n2)CC1` [E.1.22] it is more than 7.00; for `O=C1NC(=O)C(c2c[nH]c3sccc23)=C1c1nc(N2CCC23CCNCC3)nc2ccccc12` [E.1.36] it is more than 7.00. With `O=C1NC(=O)C(c2c3n(c4ccccc24)CCC(CO)C3)=C1c1c[nH]c2sccc12` (stereo not shown) [Example #1, 3-(8-(Hydroxymethyl)-6,7,8,9-tetrahydropyrido[1,2-a]indol-10-yl)-4-(6H-thieno[2,3-b]pyrrol-4-yl)-1H-pyrrole-2,5-dione] the figure was 6.30 to 7.00; with `O=C1NC(=O)C(c2c[nH]c3sccc23)=C1c1nc(N2CC[C@H](N3CCCC3)[C@@H](F)C2)nc2ccccc12` [E.1.30], more than 7.00.

`O=C1NC(=O)C(c2c[nH]c3sccc23)=C1c1nc(N2CCNCC2)nc2sccc12` [G.1.18]: the pIC50 was more than 7.00. With `O=C1NC(=O)C(c2c[nH]c3sccc23)=C1c1nc(N2CCn3c(cnc3CO)C2)nc2ccccc12` [E.1.48] the figure was more than 7.00; with `O=C1NC(=O)C(c2c[nH]c3sccc23)=C1c1nc(N2CCn3cnc(CO)c3C2)nc2ccccc12` [E.1.50], more than 7.00. The figure for `CC(C)(O)c1ncc2n1CCN(c1nc(C3=C(c4c[nH]c5sccc45)C(=O)NC3=O)c3ccccc3n1)C2` [E.1.49] is 6.30 to 7.00; for `CN1CCN(c2nc(C3=C(c4c[nH]c5sccc45)C(=O)NC3=O)c3ncccc3n2)CC1` [F.4.25] it is 6.30 to 7.00. On to `CN1CCC(C)(Cn2nc(C3=C(c4c[nH]c5sccc45)C(=O)NC3=O)c3ccccc32)CC1` [F.4.23], for which the negative-log IC50 (pIC50) is 6.30 to 7.00. The figure for `O=C1NC(=O)C(c2c[nH]c3ccsc23)=C1c1nc(N2CCC3(CCCNC3)C2)nc2ccccc12` (stereo not shown) [G.1.6] is 6.30 to 7.00; for `O=C1NC(=O)C(c2c[nH]c3sccc23)=C1c1nc(N2CCN3CCCC3C2)nc2ccccc12` (stereo not shown) [F.2.1] it is more than 7.00.

Regarding `Cc1cccc2c(C3=C(c4c[nH]c5sccc45)C(=O)NC3=O)nc(N3CCN(C)CC3)nc12` [F.4.32], the pIC50 is 6.00 to 6.30. In turn, `CC(O)c1ncc2n1CCN(c1nc(C3=C(c4c[nH]c5sccc45)C(=O)NC3=O)c3ccccc3n1)C2` (stereo not shown) [E.1.52] had a pIC50 of more than 7.00. The figure for `O=C1CN(c2nc(C3=C(c4c[nH]c5sccc45)C(=O)NC3=O)c3ccccc3n2)CCN1` [E.1.7] is 6.00 to 6.30. With `COCCN1CCC(Cn2nc(C3=C(c4c[nH]c5sccc45)C(=O)NC3=O)c3ccccc32)CC1` [F.4.21] the figure was 6.30 to 7.00; with `Cn1cnc2c1CN(c1nc(C3=C(c4c[nH]c5sccc45)C(=O)NC3=O)c3ccccc3n1)CC2` [E.1.53], more than 7.00; with `CN1CCN(c2nc(C3=C(c4c[nH]c5sccc45)C(=O)NC3=O)c3ccncc3n2)CC1` [F.4.24], more than 7.00.

Regarding `COc1cccc2nc(N3CCN(C)CC3)nc(C3=C(c4c[nH]c5sccc45)C(=O)NC3=O)c12` [F.4.11], the pIC50 is 6.30 to 7.00. `O=C1NC(=O)C(c2c[nH]c3sccc23)=C1c1nc(N2CCc3nc[nH]c3C2)nc2ccccc12` [E.1.27]: the negative logarithm of the IC50 (pIC50) is more than 7.00.
